The values that follow come from article PMC12114952, “Design, Synthesis, Anticancer Evaluation and Molecular Docking of Pyrimidine, Pyrido[4,3-d]pyrimidine and 5,6,7,8-Tetrahydropyrido[3,4-d]pyrimidine Derivatives as Novel KRAS-G12D Inhibitors and PROTACs” (Pharmaceuticals, 2025).

Each structure is given as a SMILES string. Read-outs that look alike come from different tables or passages of the source.

One assay relates to AGS. The note with it: Figure 1; cited from earlier work.
In assay [1] the test system is AsPc-1. The note with it: Figure 1, cited from earlier work.
The subject of another assay is tumor. Also on record: method as in PMID 38197882. The conditions noted are these: subcutaneous administration once a day for 22 days; cited from earlier work.
A further assay deals with HCT116 (G13D). As to the kind of experiment: CCK-8 cell proliferation assay, HCT116 cells. Type of assay: cell-based. The conditions noted are these: Homo sapiens, HCT-116, KRAS-G13D. The source says: (§1) It has been reported that Panc1 is a KRAS-G12D-mutated human pancreatic cell and that A549 is a KRAS WT cell; meanwhile, HCT116 cells carry the KRAS-G13D mutation. Therefore, we used these cell lines to analyze the compounds’ anticancer activity and selectivity.

The subject of another assay is A549 (WT). As to the kind of experiment: CCK-8 cell proliferation assay, A549 cells. Type of assay: cell-based. The conditions noted are these: Homo sapiens, KRAS wild-type.
Source text: as §1
On the technique in general: Tetrazolium assays rely on reduction of a dye to a coloured formazan, in cell work by metabolically active cells.

For a further assay, the system named is Panc1 (G12D). Nature of the assay: CCK-8 cell proliferation assay, Panc1 cells. It counts as cell-based, human. The conditions noted are these: for IC50: Homo sapiens, PANC-1, Panc1 cells, KRAS-G12D, CCK-8; for selectivity index (SI): Panc1 (G12D) over wild-type cells, fold.
Source text: as §1

A further assay has as its target KRAS-G12D (Homo sapiens, UniProt P01116, G12D). Nature of the assay: KRAS-G12D enzyme inhibition assay (GTPase activity assay).
The next assay deals with AGS (G12D). As to the kind of experiment: CCK-8 cell proliferation assay, AGS cells. The conditions noted are these: Homo sapiens, KRAS-G12D, antiproliferative. It counts as cell-based. Here is the method: as §1
(§2) After we obtained 26a and 26b, cell proliferation experiments were conducted using cell lines carrying KRAS-G12D mutations, and the results are shown in Table 2. […] In the future, more types of linkers can be designed to adjust the lipophilic–hydrophilic balance coefficient of the molecule to optimize its membrane permeability and protein degradation ability. In addition, it should be acknowledged that only two cancer cell lines were selected for testing in this experiment, which is insufficient to comprehensively evaluate these PROTACs. This is also one of the limitations of this experiment.

The test system of assay [2] is ASPC-1. Nature of the assay: Cell proliferation assay, ASPC-1 cells. Type of assay: cell-based. The conditions noted are these: Homo sapiens, ASPC1, KRAS-G12D, antiproliferative. Here is the method:
as §2

In the next assay the test system is CT26. On the set-up: method as in PMID 35276423. The note with it: Figure 1; cited from earlier work.
The next assay relates to Panc-1. The conditions noted are these: Figure 1; cited from earlier work.
Another assay relates to Panc 04.03. The conditions noted are these: Figure 1; cited from earlier work.
The next assay has as its system KC. Also on record: method as in PMID 35075146. The note with it: Figure 1; cited from earlier work.
Where [3] appears, read: KRAS-G12D inhibition IC50, enzymatic inhibition.

Sequence of KRAS-G12D (P01116 1-188 isoform P01116-2 G12D): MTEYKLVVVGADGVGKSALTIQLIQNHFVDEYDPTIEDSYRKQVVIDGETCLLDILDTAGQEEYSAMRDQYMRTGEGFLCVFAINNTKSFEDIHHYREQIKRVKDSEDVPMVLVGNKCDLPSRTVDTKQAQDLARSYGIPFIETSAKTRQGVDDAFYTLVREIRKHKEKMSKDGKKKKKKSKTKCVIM

One may read the IC50 as the concentration that gives 50% inhibition. Turning to `CCc1c(F)ccc2cc(O)cc(-c3ncc4c(N5CC6CCC(C5)N6)nc(OC[C@@H]5CCCN5CCCCOCC(=O)N[C@H](C(=O)N5C[C@H](O)C[C@H]5C(=O)N[C@@H](C)c5ccc(-c6scnc6C)cc5)C(C)(C)C)nc4c3F)c12` [Compound 8o], the figures for the half-maximal inhibitory concentration (IC50) in the assay on AGS and in the assay on AsPc-1 [1] were 31 nM and 60 nM, respectively. In the assay with tumor, the tumor inhibition rate was 68.6%.
Regarding `CN1CCCN(c2nc3c(c(N4CC(N)C4)n2)CCN(C(=O)c2ccc(F)c4ccccc24)C3)CC1` [Compound 10a, (4-(3-Aminoazetidin-1-yl)-2-(4-methyl-1,4-diazepan-1-yl)-5,8-dihydropyrido[3,4-d]pyrimidin-7(6H)-yl)(4-fluoronaphthalen-1-yl)methanone], the IC50 is 12.6 ± 1.01 µM with HCT116 (G13D), more than 20 µM in the assay on A549 (WT) and 6.17 ± 0.2 µM in the assay on Panc1 (G12D).
As to `CN1CCCN(c2nc3c(c(N4CCNCC4)n2)CCN(C(=O)c2ccc(F)c4ccccc24)C3)CC1` [Compound 10b, (4-Fluoronaphthalen-1-yl)(2-(4-methyl-1,4-diazepan-1-yl)-4-(piperazin-1-yl)-5,8-dihydropyrido[3,4-d]pyrimidin-7(6H)-yl)methanone], the IC50 in the assay with HCT116 (G13D) stood at 11.2 ± 0.94 µM; with A549 (WT) it was 7.89 ± 0.17 µM; in the assay with Panc1 (G12D) it was 5.87 ± 0.37 µM.
On to `CN1CCCN(c2nc3c(c(N4[C@@H]5CC[C@H]4CNC5)n2)CCN(C(=O)c2ccc(F)c4ccccc24)C3)CC1` [Compound 10c, (4-((1R,5S)-3,8-Diazabicyclo[3.2.1]octan-8-yl)-2-(4-methyl-1,4-diazepan-1-yl)-5,8-dihydropyrido[3,4-d]pyrimidin-7(6H)-yl)(4-fluoronaphthalen-1-yl)methanone], for which the concentration for half-maximal inhibition (IC50) was 5.13 ± 0.4 µM in the assay on HCT116 (G13D); 6.88 ± 0.19 µM with A549 (WT); more than 10000 nM at KRAS-G12D (setting [3]); 3.4 ± 0.25 µM in the assay on AGS (G12D); 1.4 ± 0.19 µM with Panc1 (G12D). Also, in the assay with Panc1 (G12D), the “selectivity index (SI)” value came out at 4.9.
As to `CN1CCCN(c2nc3c(c(N4CCNCC4CO)n2)CCN(C(=O)c2ccc(F)c4ccccc24)C3)CC1` (centres unmarked) [Compound 10d, (4-Fluoronaphthalen-1-yl)(4-(2-(hydroxymethyl)piperazin-1-yl)-2-(4-methyl-1,4-diazepan-1-yl)-5,8-dihydropyrido[3,4-d]pyrimidin-7(6H)-yl)methanone], the values for the 50% inhibitory concentration (IC50) in the assay on HCT116 (G13D), in the assay with A549 (WT) and with Panc1 (G12D) were more than 20 µM, 7.48 ± 0.19 µM and more than 20 µM, respectively.
With `CN1CCCN(c2nc3c(c(N4CCNCC4(C)C)n2)CCN(C(=O)c2ccc(F)c4ccccc24)C3)CC1` [Compound 10e, (4-(2,2-Dimethylpiperazin-1-yl)-2-(4-methyl-1,4-diazepan-1-yl)-5,8-dihydropyrido[3,4-d]pyrimidin-7(6H)-yl)(4-fluoronaphthalen-1-yl)methanone], the half-inhibitory concentration (IC50) in the assay on HCT116 (G13D) was 11.9 ± 1.59 µM; with A549 (WT), 12.8 ± 1.84 µM; with Panc1 (G12D), more than 20 µM.
Turning to `CN1CCCN(c2nc3c(c(N4CCCN(C)CC4)n2)CCN(C(=O)c2ccc(F)c4ccccc24)C3)CC1` [Compound 10f, (2,4-Bis(4-methyl-1,4-diazepan-1-yl)-5,8-dihydropyrido[3,4-d]pyrimidin-7(6H)-yl)(4-fluoronaphthalen-1-yl)methanone], the concentration for half-maximal inhibition (IC50) in the assay with HCT116 (G13D) was 10.1 ± 0.31 µM; with A549 (WT) it was more than 20 µM; in the assay with Panc1 (G12D), 3.48 ± 0.22 µM. The “selectivity index (SI)” value in the assay on Panc1 (G12D) stood at 5.7.
On to `O=C(c1ccc(F)c2ccccc12)N1CCc2c(nc(N3CCN4CCC3CC4)nc2N2CCN3CCC2CC3)C1` [Compound 10g, (2,4-Di(1,4-diazabicyclo[3.2.2]nonan-4-yl)-5,8-dihydropyrido[3,4-d]pyrimidin-7(6H)-yl)(4-fluoronaphthalen-1-yl)methanone], for which the concentration for half-maximal inhibition (IC50) in the assay on HCT116 (G13D) amounted to 7.12 ± 0.45 µM; in the assay on A549 (WT), 12.9 ± 0.38 µM; in the assay with Panc1 (G12D), 5.1 ± 0.32 µM.
With `CN1CCCN(c2nc3c(c(N4CCNCC4CO)n2)CCN(Cc2ccccc2)C3)CC1` (centres unmarked) [Compound 10h, (1-(7-Benzyl-2-(4-methyl-1,4-diazepan-1-yl)-5,6,7,8-tetrahydropyrido [3,4-d]pyrimidin-4-yl)piperazin-2-yl)methanol], the IC50 in the assay on HCT116 (G13D), in the assay on A549 (WT) and with Panc1 (G12D) was more than 20 µM each time.
Regarding `Cc1cccc2cccc(N3CCc4c(nc(N5CCCN(C)CC5)nc4N4C[C@H]5CC[C@@H](C4)N5)C3)c12` [Compound 10i, 4-((1R,5S)-3,8-Diazabicyclo[3.2.1]octan-3-yl)-2-(4-methyl-1,4-diazepan-1-yl)-7-(8-methylnaphthalen-1-yl)-5,6,7,8-tetrahydropyrido[3,4-d]pyrimidine], the results for the IC50 in the assay with HCT116 (G13D), in the assay with A549 (WT) and with Panc1 (G12D) were 4.51 ± 0.21 µM, 5.5 ± 1.35 µM and 3.92 ± 0.58 µM, respectively.
Turning to `CCN1CCC[C@H]1CNc1nc(NC(=O)c2cccc3ccccc23)cc(N2CCNCC2)n1` [Compound 10j, (S)-N-(2-(((1-Ethylpyrrolidin-2-yl)methyl)amino)-6-(piperazin-1-yl)pyrimidin-4-yl)-1-naphthamide], the IC50 is 14.5 ± 1.22 µM with HCT116 (G13D), more than 20 µM with A549 (WT) and 5.96 ± 0.64 µM in the assay with Panc1 (G12D).
Turning to `C#Cc1c(F)ccc2cc(O)cc(-c3ncc4c(N5C[C@H]6CC[C@@H](C5)N6)nc(N5CCCN(C)CC5)nc4c3F)c12` [Compound 10k, 4-(4-((1R,5S)-3,8-Diazabicyclo[3.2.1]octan-3-yl)-8-fluoro-2-(4-methyl-1,4-diazepan-1-yl)pyrido[4,3-d]pyrimidin-7-yl)-5-ethynyl-6-fluoronaphthalen-2-ol], the IC50 with HCT116 (G13D) came to 7.87 ± 0.16 µM; in the assay with A549 (WT), 14.2 ± 2.15 µM; at KRAS-G12D (setting [3]) it was 9 nM; at KRAS-G12D (KRAS-G12D inhibitory activity IC50 (nM), Table S1) it was 9.3 nM; in the assay with AGS (G12D) it was 2.22 ± 0.53 µM; with Panc1 (G12D), 11.5 ± 0.41 µM.
`C#Cc1c(F)ccc2cc(O)cc(-c3ncc4c(N5C[C@H]6CC[C@@H](C5)N6)nc(N5CCCN(CCOCCNc6cccc7c6C(=O)N(C6CCC(=O)NC6=O)C7=O)CC5)nc4c3F)c12` (stereo partly drawn) [Compound 26a, 4-((2-(2-(4-(4-((1R,5S)-3,8-Diazabicyclo[3.2.1]octan-3-yl)-7-(8-ethynyl-7-fluoro-3-hydroxynaphthalen-1-yl)-8-fluoropyrido[4,3-d]pyrimidin-2-yl)-1,4-diazepan-1-yl)ethoxy)ethyl)amino)-2-(2,6-dioxopiperidin-3-yl)isoindoline-1,3-dione]: the concentration for half-maximal inhibition (IC50) was more than 10 µM with ASPC-1 [2] and approximately 3 µM in the assay on AGS (G12D).
As for `C#Cc1c(F)ccc2cc(O)cc(-c3ncc4c(N5C[C@H]6CC[C@@H](C5)N6)nc(N5CCCN(CCCCCC(=O)N[C@H](C(=O)N6C[C@H](O)C[C@H]6C(=O)N[C@@H](C)c6ccc(-c7scnc7C)cc6)C(C)(C)C)CC5)nc4c3F)c12` [Compound 26b, (2S,4R)-1-((S)-2-(6-(4-(4-((1R,5S)-3,8-Diazabicyclo[3.2.1]octan-3-yl)-7-(8-ethynyl-7-fluoro-3-hydroxynaphthalen-1-yl)-8-fluoropyrido[4,3-d]pyrimidin-2-yl)-1,4-diazepan-1-yl)hexanamido)-3,3-dimethylbutanoyl)-4-hydroxy-N-((S)-1-(4-(4-methylthiazol-5-yl)phenyl)ethyl)pyrrolidine-2-carboxamide], the IC50 in the assay on ASPC-1 [2] came out at 5.09 ± 0.89 µM.
For the molecule `N#Cc1c(N)sc2c(F)ccc(-c3c(C(F)(F)F)cc4c(N5CC6CCC(C5)N6)nc(OC[C@@]56CCCN5C[C@H](F)C6)nc4c3F)c12` [ERAS-5024], in the assay with AsPc-1 [1] (3D, CTG), the IC50 was 4 nM.
As to `COc1cccc(C(F)(F)F)c1-c1cc2c(N3CC4CCC(C3)N4)ncnc2s1` [KD-8], the values for the IC50 with CT26 and in the assay on Panc-1 were 2000 nM and 2300 nM, respectively.
`C#Cc1c(F)ccc2cc(O)cc(-c3ncc4c(N5CC6CCC(C5)N6)nc(OC[C@@]56CCCN5C[C@H](F)C6)nc4c3F)c12` [MRTX1133, reference compound]: the IC50 was less than 0.1 µM in the assay with ASPC-1 [2]; 10 nM in the assay on Panc 04.03; 6 nM in the assay on AGS; 12.6 ± 0.47 µM with HCT116 (G13D); 12.7 ± 0.98 µM with A549 (WT); 1.46 ± 0.18 µM in the assay with AGS (G12D). This molecule yielded an IC50 in the assay on Panc1 (G12D) of 0.39 ± 0.05 µM. The tumor inhibition rate in the assay with tumor was 89.1%.
With `Cc1cccc2cccc(N3CCc4c(nc(OC[C@@H]5CCCN5C)nc4N4CC5CCC(C4)N5)C3)c12` [TH-Z835], the IC50 in the assay with KC is less than 500 nM; in the assay with Panc-1 it was less than 2000 nM.
